Ends that are not written are not given here.
What was measured:
[1] = system: Rat femur bone marrow-derived mesenchymal stem cells (BMMSC); experiment: Cell differentiation of BMMSC cells (ALP activity); format: cell-based; conditions: for cell differentiation promoting effect on BMSSC cells relative to BMP2: at confluent state (FIG. 8), comparison with BMP2; for cell differentiation promoting effect (ALP activity) on BMSSC cells: at confluent state, αMEM containing 2% FBS (FIG. 8)
Source text: Rat femur bone marrow-derived mesenchymal stem cells (BMMSC) were used. The cell strain of the cells was obtained according to the method of Maniatopoulos et al. (Maniatopoulos C, Sodek J and Melcher A H, Bone formation in vitro by stromal cells obtained from bone marrow of young adult rats, Cell Tissue Res., 254: 317-330, 1988). The femur was aseptically extracted, and surrounding soft tissue was removed as far as possible. The mesiodistal epiphysis of the femur was cut off, and the femur marrow tissue in 5 ml of 15S-containing minimum essential medium alpha medium (αMEM, GIBCO) was injected into 10 ml of the same culture broth by using a syringe. The obtained tissue was cultured in the 15S-containing αMEM at 37° C., and the 3rd to 5th generation cells were used for experiments. • (iv) Mouse-derived Cementoblasts
(§1) As an index of cell differentiation, alkaline phosphatase (ALP) activity of cells was determined. Cells were inoculated in a 24-well culture plate at a ratio of 5×10^3 cells/well, added with the peptide (a) at various concentrations and cultured in DMEM or αMEM containing 2% FBS. One week after the time point when the cells reached a confluent state, ALP activity was determined by the following enzymochemical method (Bessey-Lowry method, Bessey O A, Lowry O H and Brock M J, A method for the rapid determination of alkaline phosphatase with five cubic millimeter of serum, J. Biol. Chem., 164:321-329, 1946).
(§2) The cultured cells were washed with PBS and then disrupted in 10 mM Tris-HCl buffer (pH 7.4, 500 μl) for 40 seconds by using an ultrasonic homogenizer (Handy Sonic model UR-20P, Tomy Seiko) and stirred. Then, 25 μl of this sample liquid was added to 125 μl of ALP buffer (0.1 M carbonate buffer, pH 9.8, 6.7 mM p-nitrophenyl phosphate, 2 mM MgCl2) and incubated at 37° C. for 30 minutes. The reaction was terminated by addition of 125 μl of 0.2 N NaOH, and absorbance was measured at 405 nm by using a microplate reader (Model 550, Bio-Rad Laboratories).
(§3) Further, the peptides (a) and (b) and BMP2 were similarly examined by using the ST2 cells and BMMSC cells. The symbol “cont” in the figures indicates the results for the cells cultured in αMEM containing 2% FBS alone, “B” indicates the results for the cells cultured in the medium added only with BMP2, “HN” indicates the results for the cells cultured in the medium added only with the peptide (b), and “PN” indicates the results for the cells cultured in the medium added only with the peptide (a). In the figures, the unit of numerical values shown after “B,” “HN” and “PN” is “ng/ml.”

[2] = system: MC3T3 cells; experiment: Calcification product forming ability of MC3T3 cells (Dahl's calcium staining); format: cell-based, mouse; conditions: two weeks after confluent state
Description: To assess calcification ability of cells, Dahl's calcium staining was performed. The PDL cells were inoculated on a 24-well culture plate at a ratio of 5×10^3 cells/well, and cultured in 2S-containing DMEM added with the peptide (a) or (c) at various concentrations and adjusted by addition of 10 mM sodium β-glycerophosphate. […]
Further, the peptide (a), BMP2 and TGFβ were similarly examined by using the MC3T3 cells.

[3] = system: MC3T3 cells; experiment: Cell growth of MC3T3 cells (cell number); format: cell-based, mouse; conditions: αMEM containing 2% FBS; on Day 6; versus control (FIG. 3)
Description: (§4) As mouse-derived osteoblasts, cells of the MC3T3 cell strain or ST2 cell strain (purchased from Riken Cell Bank) were used. • (iii) Rat Femur Bone Marrow-derived Mesenchymal Stem Cells (BMMSC)
The PDL cells prepared in (1) were inoculated on a 24-well culture plate (FALCON) at a ratio of 5×10^3 cells/well. After the inoculation, the cells were cultured in DMEM containing 10% FBS for 1 day. On Day 0, next day of the inoculation, the peptide (a) prepared above was added to a culture medium (DMEM containing 2% FBS) at various concentrations. On Days 4 and 6, the cells were separated and dispersed by using PBS containing 0.08% trypsin and 0.04% ethylenediaminetetraacetic acid (EDTA), and cell number was counted by using a Coulter counter (COULTER Z1, Coulter Electronics).
Further, the peptides (a) and (b) were similarly examined for cell growth promoting effect on the MC3T3 cells. […] The symbol “cont” in FIG. 3 indicates the results for the cells cultured in αMEM containing 2% FBS alone, “B” indicates the results for the cells cultured in the medium added only with BMP2 (bone morphogenetic protein 2, Yamanouchi Pharmaceutical Co., Ltd.), “HN” indicates the results for the cells cultured in the medium added only with the peptide (b), and “PN” indicates the results for the cells cultured in the medium added with only the peptide (a). […]

[4] = system: ST2 cells; experiment: Cell differentiation of ST2 cells (ALP activity); format: cell-based, mouse; conditions: for cell differentiation promoting effect on ST2 cells relative to BMP2: at confluent state (FIG. 7), comparison with BMP2; for cell differentiation promoting effect (ALP activity) on ST2 cells: at confluent state, αMEM containing 2% FBS (FIG. 7)
Description: as §4, §1, §2, §3
Further, the peptides (b) and (k) to (n) were similarly examined at a final concentration of 100 ng/ml by using the ST2 cell strain. The symbol “cont” in the figure indicates the results for the cells cultured in DMEM containing 2% FBS alone.

Sequence | cell differentiation promoting effect on BMSSC cells relative to BMP2 [1] | cell differentiation promoting effect (ALP activity) on BMSSC cells [1] | cell differentiation promoting effect (calcification) on MC3T3 cells [2] | cell differentiation promoting effect (calcification) on MC3T3 cells relative to BMP2 ([2]; comparison with BMP2) | MC3T3 cell number (cell growth promoting effect) [3] | cell differentiation promoting effect on ST2 cells relative to BMP2 [4] | cell differentiation promoting effect (ALP activity) on ST2 cells [4]
VPAFPRQPGTPGVASL [Peptide (a)] | comparable to or higher than that of BMP2 | significant cell differentiation promoting effect | significant cell differentiation promoting effect | comparable to or higher than that of BMP2 | significantly increased | comparable to or higher than that of BMP2 | significant cell differentiation promoting effect
VPFFPQQSGTPGMASL [Peptide (b), peptide designed on the portion of human-derived sheathlin protein corresponding to (a)] | comparable to or higher than that of BMP2 | significant cell differentiation promoting effect | – | – | significantly increased | comparable to or higher than that of BMP2 | significant cell differentiation promoting effect

From patent US7678884B2, “Biologically active peptide and agent containing the same” (Seikagaku Corporation, priority 2003, dated 2010)
